Key:
Experiment in all cases: relative viability (nuclei count vs DMSO), 5 days (fraction); higher = more cells survive
[1] = compound: C1=CC2=NC=CN=C2C=C1/C=C/3\C(=O)NC(=O)S3 + O=C(c1cc(Cc2n[nH]c(=O)c3ccccc23)ccc1F)N1CCN(C(=O)C2CC2)CC1 [Olaparib] (partner 8 µM)
Outline: (§1)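 The day after seeding in 1536-well plates, lung cancer cell lines were treated by pin tool with a single drug, or with a fixed anchor-drug dose together with five library-drug doses (not always all listed) in √10 steps. After 5 days, a combined fix-and-stain solution (final 0.05% Triton X-100, 1% formaldehyde, 1 ug/ml Hoechst) was added. Nuclei counted on 4× images gave relative viability as treated counts over vehicle counts, reported as the median of duplicate plates.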

BGJ398 + Vorinostat = compound: CCN1CCN(c2ccc(Nc3cc(N(C)C(=O)Nc4c(Cl)c(OC)cc(OC)c4Cl)ncn3)cc2)CC1 [BGJ398] + O=C(CCCCCCC(=O)Nc1ccccc1)NO [Vorinostat] (partner 1 µM)
Outline: as §1

[2] = compound: C1=CC2=NC=CN=C2C=C1/C=C/3\C(=O)NC(=O)S3 + Nc1nc2[nH]cc(CCc3ccc(C(=O)N[C@@H](CCC(=O)O)C(=O)O)cc3)c2c(=O)[nH]1 [Pemetrexed] (partner 0.2 µM)
Outline: as §1

BGJ398 + Pictilisib = compound: CCN1CCN(c2ccc(Nc3cc(N(C)C(=O)Nc4c(Cl)c(OC)cc(OC)c4Cl)ncn3)cc2)CC1 [BGJ398] + CS(=O)(=O)N1CCN(Cc2cc3nc(-c4cccc5[nH]ncc45)nc(N4CCOCC4)c3s2)CC1 [Pictilisib] (partner 1 µM)
Outline: as §1

Cell Line | relative viability ([1]; first compound 0.02 µM) | relative viability ([1]; first compound 0.06325 µM) | relative viability ([1]; first compound 0.2 µM) | relative viability ([1]; first compound 0.6325 µM) | relative viability ([1]; first compound 2 µM) | relative viability (BGJ398 + Vorinostat; first compound 0.01 µM) | relative viability (BGJ398 + Vorinostat; first compound 0.03162 µM) | relative viability (BGJ398 + Vorinostat; first compound 0.1 µM) | relative viability (BGJ398 + Vorinostat; first compound 0.3162 µM) | relative viability (BGJ398 + Vorinostat; first compound 1 µM) | relative viability ([2]; first compound 0.02 µM) | relative viability ([2]; first compound 0.06325 µM) | relative viability ([2]; first compound 0.2 µM) | relative viability ([2]; first compound 0.6325 µM) | relative viability ([2]; first compound 2 µM) | relative viability (BGJ398 + Pictilisib; first compound 0.01 µM) | relative viability (BGJ398 + Pictilisib; first compound 0.03162 µM) | relative viability (BGJ398 + Pictilisib; first compound 0.1 µM) | relative viability (BGJ398 + Pictilisib; first compound 0.3162 µM) | relative viability (BGJ398 + Pictilisib; first compound 1 µM)
HCC-78 | 0.792 | 0.72 | 0.786 | 0.861 | 0.619 | 0.427 | 0.417 | 0.518 | 0.481 | 0.577 | 0.925 | 0.864 | 0.932 | 0.838 | 0.927 | 0.184 | 0.217 | 0.188 | 0.194 | 0.221
HCC-366 | 0.318 |  | 0.374 | 0.351 | 0.373 | 0.337 | 0.385 | 0.371 | 0.391 | 0.255 | 0.117 |  | 0.163 | 0.164 | 0.21 | 0.0862 | 0.146 | 0.137 | 0.277 | 0.0758
HCC-827 | 0.654 | 0.528 | 0.585 | 0.593 | 0.662 | 0.763 |  | 0.87 | 0.358 | 0.81 | 0.246 | 0.265 | 0.266 | 0.268 | 0.274 | 0.961 | 0.696 | 0.977 | 0.817 | 1.03
HOP-62 | 0.481 | 0.389 | 0.357 | 0.452 | 0.424 | 0.694 | 0.618 | 0.626 | 0.575 | 0.602 | 0.319 | 0.368 | 0.299 | 0.355 | 0.307 | 0.731 | 0.768 | 0.649 | 1.16 | 0.669
IA-LM | 0.404 | 1.02 | 0.797 | 0.836 | 0.871 | 0.797 | 0.806 | 1.09 | 0.972 | 0.894 |  |  |  |  |  | 0.343 | 0.39 | 0.334 | 0.391 | 0.311

Reference: the supplement of paper PMC10307832
